Reference: patent US4110327A, “2,3 Diketo-piperazinocarbonylamino alkanoic acids and derivatives” (Toyama Chemical Co., Ltd., priority 1974, dated 1978)
≈ marks a conversion by molar mass, not a printed value.

Key:
Salmonella typhi-murium = assay: MIC against clinical isolates; format: cell-based; details: unit assumed
β-lactamase = assay: Resistant activity against β-lactamase, iodometric assay; format: biochemical, Pseudomonas aeruginosa GN 238; details: relative to Potassium Penicillin G = 100
Protocol: (3) Resistant activity against β-lactamase, Pseudomonas aergionan GN 238:
The resistant activity of each compound against β-lactamase was measured in the manner described below.
β-Lactamase was prepared from Pseudomonas aeruginosa GN 238. This microorganism was cultured in 100 ml of a medium containing 2 g of yeast extract, 10 g of polypeptone, 2 g of glucose, 7 g of disodium hydrogen phosphate, 2 g of potassium dihydrogen phosphate, 1.2 g of ammonium sulfate and 0.4 g of magnesium sulfate, per liter, in a 500-ml Erlenmeyer flask for 6 hrs. at 37° C with shaking. The resulting cells were collected by centrifugation (5,000 r.p.m. × 10 min.), washed three times with 0.1 M phosphate buffer (pH 7.0). Subsequently, the cells were subjected to sonication (20 KHz, 20 min.) and then centrifuged at 15,000 r.p.m. for 60 min. By using the supernatant of enzyme fluid, the resistance of each compound against β-lactamase was determined by the iodometric assay method. Each numeral shown in Table 7 is a relative activity value calculated by assuming as 100 the activity of the control Potassium Penicillin G.

Salmonella typhi = assay: MIC against clinical isolates; format: cell-based; details: unit assumed
Proteus vulgaris = assay: MIC against clinical isolates; format: cell-based; details: clinical isolate, unit assumed
Klebsiella pneumoniae [1] = assay: MIC against clinical isolates; format: cell-based; details: unit assumed
Escherichia coli = assay: MIC against clinical isolates; format: cell-based; details: unit assumed
Pseudomonas aeruginosa = assay: MIC against clinical isolates; format: cell-based; details: unit assumed
Proteus vulgaris 3027 = assay: MIC against standard strain, plate method; format: cell-based; details: Proteus vulgaris 3027, standard strain; unit assumed
Method in brief: (§1)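 Plate-method MIC. Medium: heart infusion agar, pH 7.4. Inoculum: 10^4 cells per plate (10^6 cells/ml).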

Klebsiella pneumoniae [2] = assay: MIC against standard strain, plate method; format: cell-based; details: unit assumed
Method in brief: as §1

[3] = test system: Pseudomonas aeruginosa I.F.O.; assay: MIC against standard strain, plate method; format: cell-based; details: unit assumed
Method in brief: as §1

Escherichia coli NIHJ = assay: MIC against standard strain, plate method; format: cell-based; details: unit assumed
Method in brief: as §1

[4] = test system: Staphylococcus aureus 209p; assay: MIC against standard strain, plate method; format: cell-based; details: unit assumed
Method in brief: as §1

Proteus rettgeri = assay: MIC against clinical isolates; format: cell-based; details: clinical isolate, unit assumed
Proteus morganii = assay: MIC against clinical isolates; format: cell-based; details: clinical isolate, unit assumed
Proteus mirabilis = assay: MIC against clinical isolates; format: cell-based; details: clinical isolate, unit assumed
Staphylococcus aureus = assay: MIC against clinical isolates; format: cell-based; details: unit assumed
Shigella sonnei = assay: MIC against clinical isolates; format: cell-based; details: unit assumed
Protocol: (§2) The minimum inhibitory concentrations (MIC) was determined by the plate method disclosed in "Chemotherapy" (Japan), Vol. 16, (1968), pages 98 - 99. The culture medium used was a Heart infusion agar (pH 7.4). The number of the cells per plate used in the inoculum as 10^4 (10^6 cells/ml).
(§3) MIC was determined in the same manner as in the preceding paragraph (1).

Shigella flexneri = assay: MIC against clinical isolates; format: cell-based; details: unit assumed
Protocol: as §2, §3

[5] = clinical isolate GN (number not given; Table 5-3)

CCCCN1CCN(C(=O)N[C@@H](C(=O)N[C@@H]2C(=O)N3[C@@H]2SC(C)(C)[C@@H]3C(=O)O)c2ccccc2)C(=O)C1=O (single isomer, unassigned) [compound 39]
MIC (Salmonella typhi-murium; clinical isolate SL 858): 0.79 µg/mL (≈ 1.45 µM) | MIC (Salmonella typhi-murium; clinical isolate SL 2136): 100 µg/mL (≈ 183 µM) | Relative activity (β-lactamase): 15% | MIC (Salmonella typhi; clinical isolate SL 819): 0.79 µg/mL (≈ 1.45 µM) | MIC (Salmonella typhi; clinical isolate SL 2169): 0.79 µg/mL (≈ 1.45 µM) | MIC (Proteus vulgaris): < 0.4 µg/mL | MIC (Klebsiella pneumoniae [1]; clinical isolate GN 917): 1.57 µg/mL (≈ 2.88 µM) | MIC (Klebsiella pneumoniae [1]; clinical isolate GN 3850): 3.13 µg/mL (≈ 5.74 µM) | MIC (Klebsiella pneumoniae [1]; clinical isolate GN 4081): 25 µg/mL (≈ 45.8 µM) | MIC (Klebsiella pneumoniae [1]; clinical isolate GN 4117): 25 µg/mL (≈ 45.8 µM) | MIC (Escherichia coli; clinical isolate GN 3435): 0.79 µg/mL (≈ 1.45 µM) | MIC (Escherichia coli; clinical isolate GN 3452): 0.79 µg/mL (≈ 1.45 µM) | MIC (Escherichia coli; clinical isolate GN 3465): 25 µg/mL (≈ 45.8 µM) | MIC (Escherichia coli; clinical isolate GN 3481): 1.57 µg/mL (≈ 2.88 µM) | MIC (Escherichia coli; clinical isolate GN 3611): > 200 µg/mL | MIC (Escherichia coli; clinical isolate K-1): 1.57 µg/mL (≈ 2.88 µM) | MIC (Escherichia coli; clinical isolate K-2): 1.57 µg/mL (≈ 2.88 µM) | MIC (Escherichia coli; clinical isolate K-3): > 200 µg/mL | MIC (Escherichia coli; clinical isolate K-4): 0.79 µg/mL (≈ 1.45 µM) | MIC (Pseudomonas aeruginosa; clinical isolate GN 82): 3.13 µg/mL (≈ 5.74 µM) | MIC (Pseudomonas aeruginosa; clinical isolate GN 163): 3.13 µg/mL (≈ 5.74 µM) | MIC (Pseudomonas aeruginosa; clinical isolate GN 221): 3.13 µg/mL (≈ 5.74 µM) | MIC (Pseudomonas aeruginosa; clinical isolate GN 376): 6.25 µg/mL (≈ 11.5 µM) | MIC (Pseudomonas aeruginosa; clinical isolate GN 383): 6.25 µg/mL (≈ 11.5 µM) | MIC (Pseudomonas aeruginosa; clinical isolate GN 1035): 12.5 µg/mL (≈ 22.9 µM) | MIC (Pseudomonas aeruginosa; clinical isolate GN 1091): 3.13 µg/mL (≈ 5.74 µM) | MIC (Pseudomonas aeruginosa; clinical isolate GN 2565): 12.5 µg/mL (≈ 22.9 µM) | MIC (Pseudomonas aeruginosa; clinical isolate GN 2987): 3.13 µg/mL (≈ 5.74 µM) | MIC (Pseudomonas aeruginosa; [5]): 6.25 µg/mL (≈ 11.5 µM) | MIC (Pseudomonas aeruginosa; clinical isolate S-1): 12.5 µg/mL (≈ 22.9 µM) | MIC (Pseudomonas aeruginosa; clinical isolate S-2): 12.5 µg/mL (≈ 22.9 µM) | MIC (Pseudomonas aeruginosa; clinical isolate S-3): 25 µg/mL (≈ 45.8 µM) | MIC (Pseudomonas aeruginosa; clinical isolate S-4): 12.5 µg/mL (≈ 22.9 µM) | MIC (Proteus vulgaris 3027): 0.4 µg/mL (≈ 0.733 µM) | MIC (Klebsiella pneumoniae [2]): 1.57 µg/mL (≈ 2.88 µM) | MIC [3]: 6.25 µg/mL (≈ 11.5 µM) | MIC (Escherichia coli NIHJ): < 0.1 µg/mL | MIC [4]: 0.4 µg/mL (≈ 0.733 µM) | MIC (Proteus rettgeri): 6.25 µg/mL (≈ 11.5 µM) | MIC (Proteus morganii): < 0.4 µg/mL | MIC (Proteus mirabilis): < 0.4 µg/mL | MIC (Staphylococcus aureus; clinical isolate F-1): 6.25 µg/mL (≈ 11.5 µM) | MIC (Staphylococcus aureus; clinical isolate F-2): 1.57 µg/mL (≈ 2.88 µM) | MIC (Staphylococcus aureus; clinical isolate F-3): 1.57 µg/mL (≈ 2.88 µM) | MIC (Staphylococcus aureus; clinical isolate F-4): 6.25 µg/mL (≈ 11.5 µM) | MIC (Staphylococcus aureus; clinical isolate F-5): > 200 µg/mL | MIC (Staphylococcus aureus; clinical isolate MS 8588): 1.57 µg/mL (≈ 2.88 µM) | MIC (Staphylococcus aureus; clinical isolate MS 8596): 1.57 µg/mL (≈ 2.88 µM) | MIC (Staphylococcus aureus; clinical isolate MS 8619): 0.79 µg/mL (≈ 1.45 µM) | MIC (Staphylococcus aureus; clinical isolate MS 8684): 3.13 µg/mL (≈ 5.74 µM) | MIC (Staphylococcus aureus; clinical isolate MS 8713): 3.13 µg/mL (≈ 5.74 µM) | MIC (Shigella sonnei; clinical isolate JS 11232): 25 µg/mL (≈ 45.8 µM) | MIC (Shigella sonnei; clinical isolate JS 11755): 1.57 µg/mL (≈ 2.88 µM) | MIC (Shigella flexneri; clinical isolate JS 11215): 25 µg/mL (≈ 45.8 µM) | MIC (Shigella flexneri; clinical isolate JS 11839): 0.79 µg/mL (≈ 1.45 µM)

CCCCCN1CCN(C(=O)N[C@@H](C(=O)N[C@@H]2C(=O)N3[C@@H]2SC(C)(C)[C@@H]3C(=O)O)c2ccccc2)C(=O)C1=O (single isomer, unassigned) [compound 45]
MIC (Salmonella typhi-murium; clinical isolate SL 858): 0.79 µg/mL (≈ 1.41 µM) | MIC (Salmonella typhi-murium; clinical isolate SL 2136): 200 µg/mL (≈ 357 µM) | Relative activity (β-lactamase): 16% | MIC (Salmonella typhi; clinical isolate SL 819): 1.57 µg/mL (≈ 2.81 µM) | MIC (Salmonella typhi; clinical isolate SL 2169): 0.79 µg/mL (≈ 1.41 µM) | MIC (Proteus vulgaris): < 0.4 µg/mL | MIC (Klebsiella pneumoniae [1]; clinical isolate GN 3850): 3.13 µg/mL (≈ 5.59 µM) | MIC (Klebsiella pneumoniae [1]; clinical isolate GN 4081): 25 µg/mL (≈ 44.7 µM) | MIC (Klebsiella pneumoniae [1]; clinical isolate GN 4117): 25 µg/mL (≈ 44.7 µM) | MIC (Escherichia coli; clinical isolate GN 3435): 0.79 µg/mL (≈ 1.41 µM) | MIC (Escherichia coli; clinical isolate GN 3465): 25 µg/mL (≈ 44.7 µM) | MIC (Escherichia coli; clinical isolate GN 3611): > 200 µg/mL | MIC (Escherichia coli; clinical isolate K-1): 0.79 µg/mL (≈ 1.41 µM) | MIC (Escherichia coli; clinical isolate K-3): 200 µg/mL (≈ 357 µM) | MIC (Escherichia coli; clinical isolate K-4): 0.79 µg/mL (≈ 1.41 µM) | MIC (Pseudomonas aeruginosa; clinical isolate GN 82): 12.5 µg/mL (≈ 22.3 µM) | MIC (Pseudomonas aeruginosa; clinical isolate GN 163): 12.5 µg/mL (≈ 22.3 µM) | MIC (Pseudomonas aeruginosa; clinical isolate GN 221): 3.13 µg/mL (≈ 5.59 µM) | MIC (Pseudomonas aeruginosa; clinical isolate GN 376): 25 µg/mL (≈ 44.7 µM) | MIC (Pseudomonas aeruginosa; clinical isolate GN 383): 25 µg/mL (≈ 44.7 µM) | MIC (Pseudomonas aeruginosa; clinical isolate GN 1035): 50 µg/mL (≈ 89.3 µM) | MIC (Pseudomonas aeruginosa; clinical isolate GN 1091): 12.5 µg/mL (≈ 22.3 µM) | MIC (Pseudomonas aeruginosa; clinical isolate GN 2565): 25 µg/mL (≈ 44.7 µM) | MIC (Pseudomonas aeruginosa; clinical isolate GN 2987): 12.5 µg/mL (≈ 22.3 µM) | MIC (Pseudomonas aeruginosa; [5]): 25 µg/mL (≈ 44.7 µM) | MIC (Pseudomonas aeruginosa; clinical isolate S-1): 25 µg/mL (≈ 44.7 µM) | MIC (Pseudomonas aeruginosa; clinical isolate S-2): 25 µg/mL (≈ 44.7 µM) | MIC (Pseudomonas aeruginosa; clinical isolate S-3): 50 µg/mL (≈ 89.3 µM) | MIC (Pseudomonas aeruginosa; clinical isolate S-4): 25 µg/mL (≈ 44.7 µM) | MIC (Proteus vulgaris 3027): 0.4 µg/mL (≈ 0.715 µM) | MIC (Klebsiella pneumoniae [2]): 0.79 µg/mL (≈ 1.41 µM) | MIC [3]: 12.5 µg/mL (≈ 22.3 µM) | MIC (Escherichia coli NIHJ): < 0.1 µg/mL | MIC [4]: 0.79 µg/mL (≈ 1.41 µM) | MIC (Proteus rettgeri): 6.25 µg/mL (≈ 11.2 µM) | MIC (Proteus morganii): 0.79 µg/mL (≈ 1.41 µM) | MIC (Proteus mirabilis): < 0.4 µg/mL | MIC (Staphylococcus aureus; clinical isolate F-1): 6.25 µg/mL (≈ 11.2 µM) | MIC (Staphylococcus aureus; clinical isolate F-4): 6.25 µg/mL (≈ 11.2 µM) | MIC (Staphylococcus aureus; clinical isolate F-5): > 200 µg/mL | MIC (Staphylococcus aureus; clinical isolate MS 8588): 3.13 µg/mL (≈ 5.59 µM) | MIC (Staphylococcus aureus; clinical isolate MS 8596): 3.13 µg/mL (≈ 5.59 µM) | MIC (Staphylococcus aureus; clinical isolate MS 8619): 0.79 µg/mL (≈ 1.41 µM) | MIC (Staphylococcus aureus; clinical isolate MS 8684): 3.13 µg/mL (≈ 5.59 µM) | MIC (Staphylococcus aureus; clinical isolate MS 8713): 6.25 µg/mL (≈ 11.2 µM) | MIC (Shigella sonnei; clinical isolate JS 11232): 25 µg/mL (≈ 44.7 µM) | MIC (Shigella flexneri; clinical isolate JS 11215): 25 µg/mL (≈ 44.7 µM)
